Where two headings read alike, the source gives them in different places.
Legend:
[1] = cited from earlier work
[2] = tested on: herpes simplex virus infection; assay: Herpes simplex blister outbreak in two subjects (Example 6); assay type: in vivo, human; conditions: same two subjects
Experimental: Two females ([…]) with a chronic herpes simplex virus infection with frequent outbreaks of blisters on their lips ingested 1000 ml of the water-soluble ginger extract produced according to Example 1 while acutely suffering from large painful blisters.
For past outbreaks, both subjects tried multiple remedies, both pharmaceutical and natural, to treat the blisters. They include Abriva®, tea tree oil, toothpaste, lysine, acyclovir, topical hydrogen peroxide, Vaseline® and Aquafor®.

In the case of `CCCCC[C@H](O)CC(=O)CCc1ccc(O)c(OC)c1` [Example 6-gingerol, 6-gingerol], the “Solubility, pH 2 - HCl buffer” value ([1]; pH 2) is listed as greater than 100 μM, the “Solubility, pH 4 - citrate buffer” value ([1]; pH 4) is listed as greater than 100 μM and the “Solubility, pH 7.4 - phosphate buffer” value ([1]; pH 7.4) is listed as greater than 100 μM.
In the case of `CCCCC/C=C/C(=O)CCc1ccc(O)c(OC)c1` [Example 6-shogoal, 6-shogoal], the “Solubility, pH 2 - HCl buffer” value ([1]; pH 2 HCl buffer, n = 2) is given as less than 10 μM, the “Solubility, pH 4 - citrate buffer” value ([1]; pH 4 citrate buffer, n = 2) is given as less than 10 μM and the “Solubility, pH 7.4 - phosphate buffer” value ([1]; pH 7.4 phosphate buffer, n = 2) is given as less than 10 μM.
In the case of `CCCCCCC[C@H](O)CC(=O)CCc1ccc(O)c(OC)c1` [Example 8-gingerol, 8-gingerol], the “Solubility, pH 2 - HCl buffer” value ([1]; pH 2) is given as greater than 100 μM, the “Solubility, pH 4 - citrate buffer” value ([1]; pH 4) is given as greater than 100 μM and the “Solubility, pH 7.4 - phosphate buffer” value ([1]; pH 7.4) is given as greater than 100 μM.
For `CCCCCCCCC[C@H](O)CC(=O)CCc1ccc(O)c(OC)c1` [Example 10-gingerol, 10-gingerol], the “Solubility, pH 2 - HCl buffer” value ([1]; pH 2 HCl buffer, n = 2) is given as less than 10 μM, the “Solubility, pH 4 - citrate buffer” value ([1]; pH 4 citrate buffer, n = 2) is given as less than 10 μM and the “Solubility, pH 7.4 - phosphate buffer” value ([1]; pH 7.4 phosphate buffer, n = 2) is given as less than 10 μM.
In the case of `Nc1nc2c(ncn2COCCO)c(=O)[nH]1` [acyclovir], the “Relief or healing of blisters in past outbreaks” value (shortened to “Relief or healing of blisters”) [2] is reported as “None of those remedies provided any noticeable immediate relief or greater healing of the symptoms”.
For `NCCCC[C@H](N)C(=O)O` [lysine], the “Relief or healing of blisters” value [2] was “None of those remedies provided any noticeable immediate relief or greater healing of the symptoms”.
In the case of `OO` [topical hydrogen peroxide, hydrogen peroxide], the “Relief or healing of blisters” value [2] is reported as “None of those remedies provided any noticeable immediate relief or greater healing of the symptoms”.
